Legend:
FtuCA = biological target: T1, FtuCA (Francisella tularensis, UniProt Q5NH77); settings: activation constant (not association constant); activator; CO2 substrate; 10 mM Tris pH 8.4, 0.1 M Na2SO4, 25 °C; 15 min pre-incubation
T1 construct: gene cynT

BsuCA 1 = biological target: T2, BsuCA 1 (Brucella suis, UniProt A0A0H3GDA4); settings: activation constant (not association constant); activator; CO2 substrate; 10 mM Tris pH 8.4, 0.1 M Na2SO4, 25 °C; 15 min pre-incubation
T2 construct: gene BS1330_I1823
T2 sequence (A0A0H3GDA4 1-213): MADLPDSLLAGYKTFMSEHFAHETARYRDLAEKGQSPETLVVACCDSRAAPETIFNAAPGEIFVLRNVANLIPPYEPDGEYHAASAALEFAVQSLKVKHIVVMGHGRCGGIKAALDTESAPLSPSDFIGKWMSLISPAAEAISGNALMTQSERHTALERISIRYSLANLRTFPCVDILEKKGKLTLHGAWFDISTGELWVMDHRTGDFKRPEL

T1 sequence (Q5NH77 1-228): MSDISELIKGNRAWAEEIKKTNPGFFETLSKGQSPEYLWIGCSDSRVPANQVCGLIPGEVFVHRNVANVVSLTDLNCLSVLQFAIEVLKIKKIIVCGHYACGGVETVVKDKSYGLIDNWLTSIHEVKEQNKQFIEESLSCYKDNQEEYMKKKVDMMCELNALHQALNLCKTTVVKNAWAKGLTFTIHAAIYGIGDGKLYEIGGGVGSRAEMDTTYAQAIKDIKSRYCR

N[C@@H](Cc1cnc[nH]1)C(=O)O [compound 1, L-His]
KA (μM)^a / FtuCA^c (FtuCA): 40.7 µM | KA (μM)^a / BsuCA1 ^c (BsuCA 1): 1.76 µM

N[C@H](Cc1ccccc1)C(=O)O [compound 4, D-Phe]
KA (μM)^a / BsuCA1 ^c (BsuCA 1): 1.21 µM

N[C@@H](Cc1ccc(O)c(O)c1)C(=O)O [compound 5, L-DOPA]
KA (μM)^a / BsuCA1 ^c (BsuCA 1): 2.07 µM

N[C@H](Cc1ccc(O)c(O)c1)C(=O)O [compound 6, D-DOPA]
KA (μM)^a / FtuCA^c (FtuCA): 44.8 µM

N[C@@H](Cc1c[nH]c2ccccc12)C(=O)O [compound 7, L-Trp]
KA (μM)^a / FtuCA^c (FtuCA): 34.1 µM | KA (μM)^a / BsuCA1 ^c (BsuCA 1): 1.25 µM

N[C@H](Cc1c[nH]c2ccccc12)C(=O)O [compound 8, D-Trp]
KA (μM)^a / FtuCA^c (FtuCA): 30.5 µM

N[C@@H](Cc1ccc(O)cc1)C(=O)O [compound 9, L-Tyr]
KA (μM)^a / BsuCA1 ^c (BsuCA 1): 1.38 µM

N[C@H](Cc1ccc(O)cc1)C(=O)O [compound 10, D-Tyr]
KA (μM)^a / BsuCA1 ^c (BsuCA 1): 0.95 µM

Nc1ccc(C[C@H](N)C(=O)O)cc1 [compound 11, 4-H2N-L-Phe]
KA (μM)^a / BsuCA1 ^c (BsuCA 1): 1.18 µM

NCCc1ccc(O)c(O)c1 [compound 13, Dopamine]
KA (μM)^a / BsuCA1 ^c (BsuCA 1): 1.54 µM

NCc1ccccn1 [compound 15, 2-Pyridyl-methylamine]
KA (μM)^a / FtuCA^c (FtuCA): 46.3 µM | KA (μM)^a / BsuCA1 ^c (BsuCA 1): 1.62 µM

NCCN1CCNCC1 [compound 17, 1-(2-Aminoethyl)-piperazine]
KA (μM)^a / FtuCA^c (FtuCA): 51.8 µM

CNC[C@H](O)c1ccc(O)c(O)c1 [compound 19, L-Adrenaline]
KA (μM)^a / BsuCA1 ^c (BsuCA 1): 0.70 µM

N[C@@H](CCC(=O)O)C(=O)O [compound 22, L-Glu]
KA (μM)^a / FtuCA^c (FtuCA): 9.13 µM

N[C@H](CCC(=O)O)C(=O)O [compound 23, D-Glu]
KA (μM)^a / BsuCA1 ^c (BsuCA 1): 1.39 µM

NC(=O)CC[C@H](N)C(=O)O [compound 24, L-Gln]
KA (μM)^a / FtuCA^c (FtuCA): 45.7 µM
